# In patent US20120214822A1 (ASTRAZENECA AB, priority 2007, published 2012):
# Where a name gives a salt, the structure may show the parent alone.
# Target: human active recombinant p38α-6His tagged (Homo sapiens, UniProt Q16539)
# Assay: P38 Alpha Enzyme Assay (AlphaScreen, biotinylated-ATF2 substrate);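 also: 0.5 nM final p38α, reaction started with ATP and run 45 min at 37 °C, phospho-ATF2 read by antibody-based AlphaScreen, background wells quenched with EDTA before ATP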
# Assay type: biochemical
# Settings: p38 alpha enzyme inhibition; means of replicate determinations; 4 h pre-incubation at 37° C.; SD of assay 0.2-0.3 log units
# Sequence of human active recombinant p38α-6His tagged (Q16539 whole entry): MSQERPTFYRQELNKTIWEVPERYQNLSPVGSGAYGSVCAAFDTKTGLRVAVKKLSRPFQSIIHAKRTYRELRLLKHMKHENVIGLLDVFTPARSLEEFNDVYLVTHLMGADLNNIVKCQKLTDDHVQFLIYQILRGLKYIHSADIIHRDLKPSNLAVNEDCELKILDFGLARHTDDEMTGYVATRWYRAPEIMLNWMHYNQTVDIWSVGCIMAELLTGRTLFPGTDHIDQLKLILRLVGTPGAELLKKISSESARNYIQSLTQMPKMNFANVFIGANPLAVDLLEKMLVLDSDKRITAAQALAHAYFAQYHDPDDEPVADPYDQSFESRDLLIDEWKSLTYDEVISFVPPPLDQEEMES
row,SMILES,pIC50
1,"Cc1ccc(C(=O)NC2CC2)cc1-n1ccnc(NC2(c3ccccc3OCCNCC(F)(F)F)CC2)c1=O [Example 240, N-Cyclopropyl-4-methyl-3-[2-oxo-3-[[1-[2-[2-[(2,2,2-trifluoroethyl)amino]ethoxy]phenyl]cyclopropyl]amino]-1(2H)-pyrazinyl]-benzamide]",8.8
2,"Cc1ccc(C(=O)NC2CC2)cc1-n1ccnc(NC(CCN2CCOCC2)c2ccccc2)c1=O (stereo not drawn) [Example 77, N-Cyclopropyl-4-methyl-3-[3-[[3-(4-morpholinyl)-1-phenylpropyl]amino]-2-oxo-1(2H)-pyrazinyl]-benzamide]",7.5
3,"Cc1c(F)cc(C(=O)NC2CC2)cc1-n1ccnc(NC(C)(C)c2ccccc2OCCNCCC(=O)O)c1=O [Example 313, N-(2-{2-[1-({4-[5-(Cyclopropylcarbamoyl)-3-fluoro-2-methylphenyl]-3-oxo-3,4-dihydropyrazin-2-yl}amino)-1-methylethyl]phenoxy}ethyl)-beta-alanine]",9.9
4,"Cc1c(F)cc(C(=O)NC2CC2)cc1-n1ccnc(NC(C)(C)c2ccccc2OCCNC[C@@H](C)O)c1=O [Example 256, N-Cyclopropyl-3-fluoro-5-[3-[[1-[2-[2-[[(2R)-2-hydroxypropyl]amino]ethoxy]phenyl]-1-methylethyl]amino]-2-oxo-1(2H)-pyrazinyl]-4-methyl-benzamide]",10.5
5,"Cc1ccc(C(=O)NC2CC2)cc1-n1ccnc(NC2(c3cc(F)ccc3OCCNCCO)CC2)c1=O [Example 279, N-Cyclopropyl-3-[3-[[1-[5-fluoro-2-[2-[(2-hydroxyethyl)amino]ethoxy]phenyl]cyclopropyl]amino]-2-oxo-1(2H)-pyrazinyl]-4-methyl-benzamide]",10.1
6,"Cc1c(F)cc(C(=O)NC2CC2)cc1-n1ccnc(NC2(c3ccccc3OCCNC[C@H](C)O)CC2)c1=O [Example 263, N-Cyclopropyl-3-fluoro-5-[3-[[1-[2-[2-[[(2S)-2-hydroxypropyl]amino]ethoxy]phenyl]cyclopropyl]amino]-2-oxo-1(2H)-pyrazinyl]-4-methyl-benzamide]",10.3
7,"Cc1ccc(C(=O)NC2CC2)cc1-n1ccnc(N[C@@H](c2ccccc2)[C@@H](C)CNCCN(C)C)c1=O [Example 155, N-Cyclopropyl-3-[3-[[(1R,2S)-3-[[2-(dimethylamino)ethyl]amino]-2-methyl-1-phenylpropyl]amino]-2-oxo-1(2H)-pyrazinyl]-4-methyl-benzamide]",9.1
8,"CCNC(=O)c1ccc(C)c(-n2ccnc(NC(C)(C)c3ccccc3OCCNC)c2=O)c1 [Example 220, N-Ethyl-4-methyl-3-[3-[[1-methyl-1-[2-[2-(methylamino)ethoxy]phenyl]ethyl]amino]-2-oxo-1(2H)-pyrazinyl]-benzamide]",8.3
9,"CONC(=O)c1ccc(C)c(-n2ccnc(N[C@@H](c3cccc4ccccc34)[C@@H](C)CN3CCCC3)c2=O)c1 [Example 158, N-Methoxy-4-methyl-3-[3-[[(1R,2S)-2-methyl-1-(1-naphthalenyl)-3-(1-pyrrolidinyl)propyl]amino]-2-oxo-1(2H)-pyrazinyl]-benzamide]",9
10,"CNCCOc1ccccc1C(C)(C)Nc1nccn(-c2cc(C(N)=O)ccc2C)c1=O [Example 229, 4-Methyl-3-[3-[[1-methyl-1-[2-[2-(methylamino)ethoxy]phenyl]ethyl]amino]-2-oxo-1(2H)-pyrazinyl]benzamide]",8.6
11,"Cc1ccc(C(=O)NC2CC2)cc1-n1ccnc(NC2(c3ccccc3OCCN3CC[C@@H](O)C3)CC2)c1=O [Example 236, N-Cyclopropyl-3-[3-[[1-[2-[2-[(3R)-3-hydroxy-1-pyrrolidinyl]ethoxy]phenyl]cyclopropyl]amino]-2-oxo-1(2H)-pyrazinyl]-4-methyl-benzamide]",10
12,"Cc1c(F)cc(C(=O)NC2CC2)cc1-n1ccnc(N[C@@H](c2ccccc2)[C@@H](C)CN2CCCC2)c1=O [Example 328, N-Cyclopropyl-3-fluoro-4-methyl-5-[3-{[(1R,2S)-2-methyl-1-phenyl-3-pyrrolidin-1-ylpropyl]amino}-2-oxopyrazin-1(2H)-yl]benzamide]",9
13,"Cc1ccc(C(=O)NC2CC2)cc1-n1ccnc(N2CCN(CCN3CCCC3)C(c3ccccc3)C2)c1=O (stereo not drawn) [Example 123, N-Cyclopropyl-4-methyl-3-[2-oxo-3-[3-phenyl-4-[2-(1-pyrrolidinyl)ethyl]-1-piperazinyl]-1(2H)-pyrazinyl]-benzamide]",7
14,"CCCNCCOc1ccccc1C1(Nc2nccn(-c3cc(C(=O)NC4CC4)ccc3C)c2=O)CC1 [Example 298, N-Cyclopropyl-4-methyl-3-{2-oxo-3-[(1-{2-[2-(propylamino)ethoxy]phenyl}cyclopropyl)amino]pyrazin-1(2H)-yl}benzamide]",10.2
15,"COC[C@H]1CCCN1C[C@H](C)[C@@H](Nc1nccn(-c2cc(C(=O)NC3CC3)ccc2C)c1=O)c1ccccc1 [Example 147, N-Cyclopropyl-3-[3-[[(1R,2S)-3-[(2R)-2-(methoxymethyl)-1-pyrrolidinyl]-2-methyl-1-phenylpropyl]amino]-2-oxo-1(2H)-pyrazinyl]-4-methyl-benzamide]",9
16,"Cc1ccc(C(=O)NC2CC2)cc1-n1ccnc(Sc2ccccc2)c1=O [Example 117, N-Cyclopropyl-4-methyl-3-[2-oxo-3-(phenylthio)-1(2H)-pyrazinyl]-benzamide]",6.8
17,"Cc1ccc(C(=O)NC2CC2)cc1-n1ccnc(NC2(c3cccc(F)c3OCCNC[C@@H](C)O)CC2)c1=O [Example 283, N-Cyclopropyl-3-[3-({1-[3-fluoro-2-(2-{[(2R)-2-hydroxypropyl]amino}ethoxy)phenyl]cyclopropyl}amino)-2-oxopyrazin-1(2H)-yl]-4-methylbenzamide]",9.7
18,"COC[C@@H]1CCCN1C[C@H](C)[C@@H](Nc1nccn(-c2cc(C(=O)NC3CC3)ccc2C)c1=O)c1ccccc1 [Example 149, N-Cyclopropyl-3-[3-[[(1R,2S)-3-[(2S)-2-(methoxymethyl)-1-pyrrolidinyl]-2-methyl-1-phenylpropyl]amino]-2-oxo-1(2H)-pyrazinyl]-4-methyl-benzamide]",8.9
19,"CCNCCOc1ccccc1C1(Nc2nccn(-c3cc(C(=O)NC4CC4)ccc3C)c2=O)CCC1 [Example 269, N-Cyclopropyl-3-[3-[[1-[2-[2-(ethylamino)ethoxy]phenyl]cyclobutyl]amino]-2-oxo-1(2H)-pyrazinyl]-4-methyl-benzamide]",9.9
20,"Cc1ccc(C(=O)NC2CC2)cc1-n1ccnc(NC(C)(C)c2ccccc2OCCCCN2CCN(C)CC2)c1=O [Example 206, N-Cyclopropyl-4-methyl-3-[3-[[1-methyl-1-[2-[4-(4-methyl-1-piperazinyl)butoxy]phenyl]ethyl]amino]-2-oxo-1(2H)-pyrazinyl]-benzamide]",9.3
21,"Cc1ccc(C(=O)NC2CC2)cc1-n1ccnc(N[C@@H](c2ccccc2)C2CCNCC2)c1=O [Example 101, N-Cyclopropyl-4-methyl-3-[2-oxo-3-[[(R)-phenyl-4-piperidinylmethyl]amino]-1(2H)-pyrazinyl]-benzamide, trifluoroacetate]",7.4
22,"Cc1ccc(C(=O)NC2CC2)cc1-n1ccnc(N[C@@H](c2ccccc2)[C@@H](C)CN2C[C@@H](C)N[C@@H](C)C2)c1=O [Example 194, N-Cyclopropyl-3-[3-[[(1R,2S)-3-[(3R,5S)-3,5-dimethyl-1-piperazinyl]-2-methyl-1-phenylpropyl]amino]-2-oxo-1(2H)-pyrazinyl]-4-methyl-benzamide]",9.1
23,"Cc1ccc(C(=O)NC2CC2)cc1-n1ccnc(N[C@@H](c2ccccc2)[C@@H](C)CNC(C)(C)CO)c1=O [Example 193, N-Cyclopropyl-3-[3-[[(1R,2S)-3-[(2-hydroxy-1,1-dimethylethyl)amino]-2-methyl-1-phenylpropyl]amino]-2-oxo-1(2H)-pyrazinyl]-4-methyl-benzamide]",9.3
24,"Cc1c(F)cc(C(=O)NC2CC2)cc1-n1ccnc(NC(C)(C)c2ccccc2OCCNC[C@H](C)O)c1=O [Example 258, N-Cyclopropyl-3-fluoro-5-[3-[[1-[2-[2-[[(2S)-2-hydroxypropyl]amino]ethoxy]phenyl]-1-methylethyl]amino]-2-oxo-1(2H)-pyrazinyl]-4-methyl-benzamide]",10.4
25,"Cc1ccc(C(=O)NC2CC2)cc1-n1ccnc(NC2(c3cccc(F)c3OCCNCCO)CC2)c1=O [Example 285, N-Cyclopropyl-3-[3-{[1-(3-fluoro-2-{2-[(2-hydroxyethyl)amino]ethoxy}phenyl)cyclopropyl]amino}-2-oxopyrazin-1(2H)-yl]-4-methylbenzamide]",9.6
26,"Cc1ccc(C(=O)NC2CC2)cc1-n1ccnc(NC2(c3ccccc3OCCNC(CO)CO)CC2)c1=O [Example 294, N-Cyclopropyl-3-[3-({1-[2-(2-{[2-hydroxy-1-(hydroxymethyl)ethyl]amino}ethoxy)phenyl]cyclopropyl}amino)-2-oxopyrazin-1(2H)-yl]-4-methylbenzamide]",10
27,"Cc1ccc(CNc2nccn(-c3cc(C(=O)NC4CC4)ccc3C)c2=O)cc1 [Example 42, N-Cyclopropyl-4-methyl-3-[3-[[(4-methylphenyl)methyl]amino]-2-oxo-1(2H)-pyrazinyl]-benzamide]",6.4
28,"Cc1ccc(C(=O)NC2CC2)cc1-n1ccnc(NC2(c3ccccc3OCCN[C@@H](CO)C(C)C)CC2)c1=O [Example 293, N-Cyclopropyl-3-[3-({1-[2-(2-{[(1R)-1-(hydroxymethyl)-2-methylpropyl]amino}ethoxy)phenyl]cyclopropyl}amino)-2-oxopyrazin-1(2H)-yl]-4-methylbenzamide]",9.5
29,"Cc1ccc(C(=O)NC2CC2)cc1-n1ccnc(N[C@H](CO)c2ccccc2)c1=O [Example 80, N-Cyclopropyl-3-[3-[[(1S)-2-hydroxy-1-phenylethyl]amino]-2-oxo-1(2H)-pyrazinyl]-4-methyl-benzamide]",7.9
30,"CSc1ccccc1CNc1nccn(-c2cc(C(=O)NC3CC3)ccc2C)c1=O [Example 128, N-Cyclopropyl-4-methyl-3-[3-[[[2-(methylthio)phenyl]methyl]amino]-2-oxo-1(2H)-pyrazinyl]-benzamide]",8.2
